{"source": "patent US9856221B2", "about": "“Salt of ivabradine and process for the preparation thereof” (LES LABORATOIRES SERVIER, priority 2014, dated 2018)", "key": {"[1]": {"test": "Dissolution test (paddle apparatus, Ph. Eur. 2.9.3), release of active ingredient", "type": "physicochemical", "details": "for % of active ingredient released (individual units B1-B6) / % of active ingredient released, Mean: 0.01 N HCl pH~2.1, 37°C, paddle 50 rpm; for % of active ingredient released (individual units B1-B6): 500 mL; for % of active ingredient released, Mean: mean of 6 units", "protocol": "Dissolution Test Operating Conditions for Dissolution Paddle dissolution apparatus described in the European pharmacopoeia (2.9.3) Dissolution medium: 0.01 N hydrochloric acid (pH˜2.1) degassed Temperature of the medium: 37° C.±0.5° C. Volume of the medium: 500 mL±5 mL Speed of rotation of the blades: 50 rpm±2 rpm Standard sampling time: 0, 15, 30 and 45 min Added sampling times: 1, 2, 4, 6, 8, 12 and 16 h Volume removed: 1 mL Replacement of the volume removed: no Number of units tested: 6 Number of units per flask: 1"}, "[2]": {"test": "In vitro release of ivabradine hydrochloride (immediate-release formulation)", "type": "physicochemical"}}, "note": "Values joined by “and” are separate entries in the source; they are usually repeats but may differ in a detail not shown here. Equal entries are not always repeated. Structures can show the parent of a compound that is named as a salt.", "data": [{"smiles": "COc1cc2c(cc1OC)CC(=O)N(CCCN(C)C[C@H]1Cc3cc(OC)c(OC)cc31)CC2", "note": "[ivabradine hemipamoate]", "values": [{"measurement": "ivabradine hemipamoate released", "setting": "[1]; after approximately 6 hours, in vitro dissolution test", "value": 80, "unit": "%"}, {"measurement": "Derivative (of % of active ingredient released over time)", "setting": "[1]; time 0 hour", "value": 0, "unit": "%/min"}, {"measurement": "% of active ingredient released (individual units B1-B6)", "setting": "[1]; time 0 hour", "value": 0, "unit": "%"}, {"measurement": "% of active ingredient released, Mean", "setting": "[1]; time 0 hour", "value": 0, "unit": "%"}, {"measurement": "Derivative (of % of active ingredient released over time)", "setting": "[1]; time 0.25 hour", "value": 0.79, "unit": "%/min"}, {"measurement": "% of active ingredient released (individual units B1-B6)", "setting": "[1]; time 0.25 hour", "value": "12% (3×) and 11% (2×) and 13%"}, {"measurement": "% of active ingredient released, Mean", "setting": "[1]; time 0.25 hour", "value": 12, "unit": "%"}, {"measurement": "Derivative (of % of active ingredient released over time)", "setting": "[1]; time 0.5 hour", "value": 0.4, "unit": "%/min"}, {"measurement": "% of active ingredient released (individual units B1-B6)", "setting": "[1]; time 0.5 hour", "value": "18% (2×) and 17% (2×) and 20% and 16%"}, {"measurement": "% of active ingredient released, Mean", "setting": "[1]; time 0.5 hour", "value": 18, "unit": "%"}, {"measurement": "Derivative (of % of active ingredient released over time)", "setting": "[1]; time 0.75 hour", "value": 0.26, "unit": "%/min"}, {"measurement": "% of active ingredient released (individual units B1-B6)", "setting": "[1]; time 0.75 hour", "value": "21% (2×) and 22% (2×) and 24% and 20%"}, {"measurement": "% of active ingredient released, Mean", "setting": "[1]; time 0.75 hour", "value": 22, "unit": "%"}, {"measurement": "Derivative (of % of active ingredient released over time)", "setting": "[1]; time 1 hour", "value": 0.2, "unit": "%/min"}, {"measurement": "% of active ingredient released (individual units B1-B6)", "setting": "[1]; time 1 hour", "value": "24% and 25% and 26% and 28% and 23% (2×)"}, {"measurement": "% of active ingredient released, Mean", "setting": "[1]; time 1 hour", "value": 25, "unit": "%"}, {"measurement": "Derivative (of % of active ingredient released over time)", "setting": "[1]; time 2 hour", "value": 0.23, "unit": "%/min"}, {"measurement": "% of active ingredient released (individual units B1-B6)", "setting": "[1]; time 2 hour", "value": "38% (2×) and 40% (2×) and 43% and 34%"}, {"measurement": "% of active ingredient released, Mean", "setting": "[1]; time 2 hour", "value": 39, "unit": "%"}, {"measurement": "Derivative (of % of active ingredient released over time)", "setting": "[1]; time 4 hour", "value": 0.25, "unit": "%/min"}, {"measurement": "% of active ingredient released (individual units B1-B6)", "setting": "[1]; time 4 hour", "value": "64% and 70% (2×) and 71% and 72% and 66%"}, {"measurement": "% of active ingredient released, Mean", "setting": "[1]; time 4 hour", "value": 69, "unit": "%"}, {"measurement": "Derivative (of % of active ingredient released over time)", "setting": "[1]; time 6 hour", "value": 0.15, "unit": "%/min"}, {"measurement": "% of active ingredient released (individual units B1-B6)", "setting": "[1]; time 6 hour", "value": "81% and 89% and 88% and 85% and 91% and 84%"}, {"measurement": "% of active ingredient released, Mean", "setting": "[1]; time 6 hour", "value": 86, "unit": "%"}, {"measurement": "Derivative (of % of active ingredient released over time)", "setting": "[1]; time 8 hour", "value": 0.07, "unit": "%/min"}, {"measurement": "% of active ingredient released (individual units B1-B6)", "setting": "[1]; time 8 hour", "value": "89% and 99% and 96% and 94% and 101% and 93%"}, {"measurement": "% of active ingredient released, Mean", "setting": "[1]; time 8 hour", "value": 95, "unit": "%"}, {"measurement": "Derivative (of % of active ingredient released over time)", "setting": "[1]; time 12 hour", "value": 0.03, "unit": "%/min"}, {"measurement": "% of active ingredient released (individual units B1-B6)", "setting": "[1]; time 12 hour", "value": "96% and 109% and 102% and 103% and 110% and 101%"}, {"measurement": "% of active ingredient released, Mean", "setting": "[1]; time 12 hour", "value": 104, "unit": "%"}, {"measurement": "Derivative (of % of active ingredient released over time)", "setting": "[1]; time 16 hour", "value": 0.01, "unit": "%/min"}, {"measurement": "% of active ingredient released (individual units B1-B6)", "setting": "[1]; time 16 hour", "value": "98% and 114% (2×) and 104% and 106% and 105%"}, {"measurement": "% of active ingredient released, Mean", "setting": "[1]; time 16 hour", "value": 107, "unit": "%"}]}, {"smiles": "COc1cc2c(cc1OC)CC(=O)N(CCCN(C)C[C@H]1Cc3cc(OC)c(OC)cc31)CC2", "note": "[ivabradine hydrochloride, 3-{3-[{[(7S)-3,4-dimethoxybicyclo[4.2.0]octa-1,3,5-trien-7-yl]methyl}-(methyl)amino]propyl}-7,8-dimethoxy-1,3,4,5-tetrahydro-2H-3-benzazepin-2-one]", "values": [{"measurement": "time in which all the salt is released in vitro", "setting": "[2]", "value": 15, "unit": "min"}]}]}
